Calls of active or inactive are those of the source. The rule behind the calls is not given here.

Consider 95 molecules from PubChem BioAssay AID977606 (Broad Institute, 2014).

In the experiment the test system is INS-1E Gaussia luciferase insulin secretion, no glucose, luminescence. Put plainly: insulin secretion activators without glucose, dose response, counter-screen for glucose-dependent insulin secretion activators, cell-based, INS-1E, Gaussia luciferase, luminescence, cherry-pick (AID 977606). Background: The purpose of a counterscreen is to sort out artefacts and off-target activity.
Turning to `Oc1ccccc1C1SC(c2ccccc2O)SC(c2ccccc2O)S1` (stereo not given), the AC40 is 5.36 µM.
Take `COc1ccccc1CCn1cnc(-c2cccc(F)c2)c1CC(C)C`: the AC40 is 8.26 µM.
Then `O=C(COc1ccc2c(c1)OCO2)Nc1ccc2c(c1)oc1ccccc12`, with 12.2 µM; and `CCOc1ccc(CN2C(=O)c3ccccc3C2=O)cc1C(=O)Nc1nnc(SCC)s1`, with 5.71 µM.
On to `CCCc1nc2ccccc2c(=O)n1CC(=O)c1ccc(OC)cc1`, for which the AC40 is 5.72 µM.
Consider `NCCCNC(=S)NCCCN(Cc1ccc(Cl)cc1)c1ccc(Br)cn1`, for which the AC40 is 23.4 µM.
For `Cc1nc2c(-c3ccc(F)cc3)cnn2c2c1CCC2`, the AC40 is 20.1 µM.
For `CCCCc1c(Cc2cccc(F)c2)ncn1CCc1ccccc1OC`, the AC40 is 4.98 µM.
On to `CC(=O)c1nn(-c2ccc(Br)cc2)cc1C(=O)c1ccccc1`, for which the AC40 is 22.1 µM.
The result for `Cc1cccc(-n2c(C)c(C)c3c(N)ncnc32)c1` reads > 35 µM (inactive); that for `CN(C)CCNc1ncnc2oc(-c3ccccc3)c(-c3ccccc3)c12`, 26.4 µM; that for `Cc1ccc2c(Cl)c(C)c(N3CCCCC3)nc2n1`, 9.65 µM.
The result for `O=c1c2ccc(F)cc2sn1-c1ccccc1` reads 1.45 µM; that for `COC(=O)C1=C(C)N(Cc2cccc(C(F)(F)F)c2)C(=NCc2ccccc2)NC1c1ccc(Cl)cc1` (stereo not given), 10.4 µM.
As to `CCOC(=O)c1[nH]c2cc(OC)c(OC)cc2c1NC(=O)c1ccc2c(c1)OCO2`, the AC40 is 15.6 µM.
As to `CN(C)Cc1ccccc1Sc1ccc2c(c1)CCCC2`, the AC40 is 13 µM.
Then `CNc1nc(-c2ccccc2)[n+](-c2ccc(C)cc2)s1`, with 0.858 µM; and `CN(Cc1ccccc1)C(=S)NC(=O)c1ccc(-c2ccccc2)cc1`, with 24 µM; and `CCCOc1ccc(/C=N/NC(=O)C(=O)Nc2ccccn2)cc1`, with 18.5 µM.
On to `CCCCCCCOC(=O)c1nc(Cl)c(Cl)c(N)c1Cl`, for which the AC40 is 8.89 µM.
Turning to `CC(=O)C1=C(S(=O)(=O)c2ccc(C)cc2)CS(=O)(=O)C1`, the AC40 is 0.613 µM.
Take `CC(C)(C)C1CCc2c(sc(NC(=O)c3cccs3)c2C(N)=O)C1` (stereo not given): the AC40 is 16.5 µM.
Then `O=C(Nc1ccc2ccccc2c1)c1cccc2ccccc12`, with 3.25 µM; and `Cc1ccc(F)cc1-c1nc(NC(C)C)nc2cc(-c3ccccc3)sc12`, with 13.6 µM.
Regarding `CC1CCC(C(C)C)C(OCC(O)CNC(C)c2ccccc2)C1` (stereo not given), the AC40 was 11.8 µM.
Then `Cc1cc(OCC(O)CNC(C)c2ccccc2)ccc1C(C)C` (stereo not given), with 9.73 µM; and `CCOC(=O)[C@]12Cc3c(cc(OC)c(OC)c3OC)[C@H]1N(C1CCCCC1)C(=O)c1cc(OC)ccc12`, with 6 µM.
The result for `CC1(Cc2ccc(C(F)(F)F)o2)C(=O)Nc2ccc(-c3cccc(C(F)(F)F)c3)cc21` (stereo not given) reads 5.92 µM; that for `CCCCCc1c(Cc2ccccc2)ncn1CCc1ccccc1OC`, 8.28 µM.
Regarding `CC(C)CC#Cc1ccc2c(c1)O[C@@H](CN(C)Cc1ccc(F)cc1)[C@H](C)CN([C@H](C)CO)S2(=O)=O`, the AC40 was 9.44 µM.
In the case of `CCOc1cccc(-c2csc(C3COc4ccccc4O3)n2)c1` (stereo not given), the AC40 was 5.47 µM.
On to `OC(c1ccccc1)(c1ccccc1)C1CCN(CCCOc2ccc(-c3ccsc3)cc2)CC1`, for which the AC40 is 9.65 µM.
The result for `NC(CCc1ccccc1)c1csc(Nc2ccc(C(F)(F)F)cn2)n1` (stereo not given) reads 6.01 µM; that for `O=c1[nH][nH]c2c1C(c1ccc(Cl)c(Cl)c1)OC(CCc1ccccc1)C2` (stereo not given), 19.2 µM.
Then `CCOc1ccccc1CNC(c1ccccc1)c1ccccc1`, with 2.21 µM.
With `COc1ccc(C(O)c2nc(-c3ccc(OC)c(OC)c3)cs2)cc1` (stereo not given), the AC40 is 34.2 µM.
Then `CC(C)CC(NC(=O)c1ccc(Cl)cc1)C(=O)OCC(=O)c1ccc2c(c1)NC(=O)CO2` (stereo not given), with 2.04 µM; and `Fc1ccc(-c2ccc(C3[C@@H]4CN(Cc5ccccc5)C[C@H]3N4)cc2)cc1` (stereo not given in full), with 8.97 µM; and `O=C1CCc2cc(S(=O)(=O)N3CCN(c4ccc(F)cc4)CC3)cc3c2N1CC3`, with > 35 µM (inactive).
Then `CC1CCN(S(=O)(=O)c2ccc(C(=O)OCc3ccc4c(c3)OCO4)cc2)CC1`, with 11.4 µM; and `CC(C)(C)c1ccccc1OCC(O)CN1CCN(c2ccccn2)CC1` (stereo not given), with 13 µM; and `COc1ccc(C(=O)Nc2ccc3c(c2)C(=O)c2ccccc2C3=O)cc1OC`, with > 35 µM (inactive).
Turning to `CCCCc1c(-c2ccccc2OC)ncn1Cc1ccccc1C`, the AC40 is 11.3 µM.
On to `N#Cc1ccc(-c2ccc([C@@H]3[C@H]4CNC[C@@H]3N4Cc3cc(F)ccc3F)cc2)cc1`, for which the AC40 is 12.8 µM.
Then `OC(c1ccccc1)(c1ccccc1)C1CCN(CCCOc2ccc(-c3ccc(F)cc3F)cc2)CC1`, with 1.29 µM.
`COc1ccc2c(c1)CCc1c(C(=O)Nc3cc(C)n(Cc4ccc(Cl)cc4)n3)noc1-2`: the AC40 is 1.86 µM.
Turning to `NC(N)=N/N=C/c1ccc(OCc2ccccc2)c(OCc2ccccc2)c1`, the AC40 was 6.87 µM.
As for `NC(N)=N/N=C/c1ccc(OCc2ccccc2Cl)cc1`, the AC40 was 12.3 µM.
Then `Cc1c(C)c2c(OCC(=O)O)cc3c(c2oc1=O)CCC(C)(C)O3`, with 22 µM; and `COc1ccc2c(c1)C(=NNC(=O)c1ccccn1)c1cc(OC)ccc1-2`, with 2.66 µM.
Then `CCOC(=O)CN1C(=O)[C@]2(OCCC=C[C@H]2C)c2ccccc21`, with 13 µM; and `O=C(Nc1nnc(-c2ccc(F)cc2)s1)C1CCN(S(=O)(=O)c2ccc(Cl)cc2)CC1`, with 5.13 µM; and `CCCCCCN1C[C@H](n2cc(C3CC3)nn2)[C@@H](O)C[C@@H]1c1ccc(C)cc1`, with 5.22 µM.
On to `CN(C)c1nc(=NCc2cccs2)ss1`, for which the AC40 was 1.19 µM.
Take `OC(CNCCc1ccc(C(F)(F)F)cc1)COC(c1ccccc1)c1ccccc1` (stereo not given): the AC40 is 4.72 µM.
In the case of `COc1cc(/C=N/NC(=O)Nc2ccccc2)ccc1OCCOc1ccccc1C`, the AC40 is 1.92 µM.
The result for `CCOC(=O)c1c(NC(=O)c2ccoc2C)sc(C(=O)N(C)C)c1C` reads > 35 µM (inactive).
Regarding `CCCCc1nc(NCCN)c(C#N)c2c1CSC(C)(C)C2`, the AC40 is 11.6 µM.
`COc1ccc(S(=O)(=O)N2CCc3ccccc32)cc1C(=O)Nc1ccc(C(N)=O)cc1`: the AC40 is 6.44 µM.
The result for `O=C1N/C(=N\N=C\c2cccs2)SC1Cc1cccc(Cl)c1` (stereo not given) reads 5.93 µM.
In the case of `C=CCn1c(=NC(=O)c2cc(Cl)sc2Cl)sc2cc(S(N)(=O)=O)ccc21`, the AC40 was 4.47 µM.
Take `C=CCNC(=S)N/N=C/c1ccc(-c2cc(Cl)ccc2Cl)o1`: the AC40 is 4.34 µM.
As to `COc1cccc(-c2cc(C(=O)Nc3cc(C)on3)no2)c1`, the AC40 was 10.7 µM.
Consider `Cc1ccc(C(=O)Oc2ccc(-c3nccc(-c4ccccn4)n3)cc2)cc1`, for which the AC40 is 5.1 µM.
For `COCCn1c(=NC(=O)c2cc(Cl)sc2Cl)sc2cc(S(N)(=O)=O)ccc21`, the AC40 was 6.07 µM.
In the case of `COc1ccc(C)c2sc(N(CCCN(C)C)C(=O)c3ccc(S(=O)(=O)N4CCc5ccccc5C4)cc3)nc12`, the AC40 was 3.62 µM.
As for `CC1(Cc2cc(Cl)ccc2C(F)(F)F)C(=O)Nc2cc(C(F)(F)F)ccc21` (stereo not given), the AC40 was 12.4 µM.
The result for `CCOC(=O)c1cc2sccc2n1CC(=O)N1c2ccccc2CC1C` (stereo not given) reads 5.99 µM; that for `CC1CN(Cc2ccccc2)C(=S)NC1=O` (stereo not given), 28.6 µM.
Then `C=CCNc1nc(Cl)nc(Nc2ccc(OC)cc2)n1`, with 11.3 µM; and `Cc1cc(C(F)F)n2ncc(C(=O)NCc3ccc(F)cc3)c2n1`, with > 35 µM (inactive).
The result for `O=S(=O)(c1ccccc1F)N1C[C@@H]2N[C@H](C1)C2c1ccc(/C=C/c2ccccc2)cc1` (stereo not given in full) reads 7.12 µM; that for `Cn1c(=O)c(C(=O)NNC(=O)c2cccc(Cl)c2)c(O)c2ccccc21`, 9.13 µM; that for `Nc1c(C(=O)Nc2ccc3c(c2)OCCO3)nnn1Cc1ccc(Cl)cc1`, 10.1 µM.
As to `Nn1c(-c2ccccc2)cc(-c2ccccc2)cc1=O`, the AC40 is > 35 µM (inactive).
Then `Cc1cccn2cc(CNS(=O)(=O)c3ccc4ccccc4c3)nc12`, with 2.91 µM.
Then `Cc1ccc(S(=O)(=O)C=CS(=O)(=O)c2ccc(C)cc2)cc1`, with 0.228 µM; and `COC(=O)c1cnn(-c2nc(-c3ccccc3)cs2)c1N`, with 20.4 µM.
The result for `CCNC(=O)NC(=O)C(C)OC(=O)c1oc2ccccc2c1CSC1CCCCC1` (stereo not given) reads 2.22 µM.
On to `C[C@@H]1CN([C@@H](C)CO)C(=O)c2cc(Br)cnc2O[C@H]1CN(C)C(=O)C1CC1`, for which the AC40 was > 35 µM (inactive).
`CCOC(=O)c1c(-c2ccc(-c3ccccc3)cc2)csc1NC(=O)CNCCN(C)C`: the AC40 was 5.75 µM.
Turning to `CN(C)S(=O)(=O)c1cccc(-n2sc3ccccc3c2=O)c1`, the AC40 is 2.58 µM.
The result for `COc1ccc(CNCC(O)COc2ccc(C(C)(C)c3ccccc3)cc2)cc1` (stereo not given) reads 6.24 µM; that for `CCS(=O)(=O)Nc1ccc(-c2cc(-c3ccccc3)c3cc(C)ccc3n2)cc1`, 17.5 µM; that for `Cc1cc(C)cc(OCCCN2CCC(C(O)(c3ccccc3)c3ccccc3)CC2)c1`, 6.87 µM.
On to `CS(=O)(=O)c1cnc(-c2ccccc2)nc1Oc1ccc(F)cc1`, for which the AC40 is 10.9 µM.
The result for `Cc1ccc(-c2n[nH]c(=S)n2/N=C/c2c(C)nn(-c3ccccc3)c2C)cc1` reads 6.5 µM; that for `O=c1c(C=Nc2ccc(Oc3ccccc3)cc2)c[nH]n1-c1cccc(Cl)n1`, 4.28 µM; that for `Cc1ccc2sc(-c3ccc(NC(=O)c4cc(-n5cnnc5)ccc4Cl)cc3)nc2c1`, 8.4 µM.
The result for `O=C1CC(Sc2nnc(-c3ccccc3)o2)C(=O)N1c1ccccc1` (stereo not given) reads 9.58 µM.
As to `Cc1cccc(-c2ccc(C3[C@@H]4CN(C(=O)Nc5ccc(C(F)(F)F)cc5)C[C@H]3N4)cc2)c1` (stereo not given in full), the AC40 is 1.7 µM.
On to `CC1(C(=O)NS(=O)(=O)c2ccc(Cl)s2)CCN1C(=O)C1(c2ccccc2)CCCC1` (stereo not given), for which the AC40 is 9.9 µM.
In the case of `C[C@H](CO)N1C[C@H](C)[C@@H](CN(C)C(=O)Cc2ccccn2)Oc2cc(C#C[C@@H](C)O)ccc2S1(=O)=O`, the AC40 was 18 µM.
For `OC(c1ccccc1)(c1ccccc1)C1CCN(CCCOc2cccc(OC(F)(F)F)c2)CC1`, the AC40 was 3.95 µM.
The result for `COc1cc(CN2[C@@H]3CNC[C@H]2C3c2ccc(/C=C/c3ccccc3)cc2)cc(OC)c1` (stereo not given in full) reads 9.7 µM.
